The species entered for series [1] is Homo sapiens. In words: Selectivity ratio of IC50 for HIF-PHD2 (unknown origin) to IC50 for HIF-PHD1 (unknown origin).
Series [2] deals with T1, Egl nine homolog 1 (Homo sapiens, UniProt Q9GZT9). In words: Inhibition of HIF-PHD2 (unknown origin) by fluorescence polarization assay.
Series [3] is described as follows: Inhibition of PHD in human A549 cells by luciferase reporter gene assay. It is filed as cell-based.
Series [4] is described as follows: Inhibition of PHD (unknown origin) by FRET assay. On the set-up: species or system Homo sapiens.
Series [5] can be described thus: Inhibition of PHD (unknown origin). Also noted: species or system Homo sapiens.
Series [6] can be described thus: Inhibition of PHD in rat H9C2 cells after 24 hrs by ELISA. It is filed as cell-based.
Series [7] concerns Homo sapiens. In words: In vivo inhibition of PHD in human assessed as induction of EPO level in serum at 900 mg measured after 18 hrs. The series is classed as functional.
Series [8] has as its system Homo sapiens. Put plainly: In vivo inhibition of PHD in human assessed as induction of EPO level in serum at 1 mg/kg, po administered as twice weekly measured at 4 to 10 hrs post dose. It is filed as functional.
For series [9], the species on record is Homo sapiens. In words: Antianemic activity in human assessed as increase in hemoglobin level. The series is classed as functional.
Series [10] is described as follows: Half life in human at 1 to 2 mg/kg, po administered as two or three times weekly. The series is classed as ADME, organism-based. Conditions: in vivo.
Series [11] in a line: Oral bioavailability in Wistar rat. It is filed as ADME, organism-based. Conditions: in vivo.
Series [12] has as its system Rattus norvegicus. In words: In vivo inhibition of PHD in Wistar rat assessed as increase in packed cell volume at 5 mg/kg, po measured after 26 days relative to control. On the set-up: scale not given: the % may be the effect or the level left. It is filed as functional.
For series [13], the system named is Rattus norvegicus. Put plainly: In vivo inhibition of PHD in Wistar rat assessed as increase in packed cell volume at 1.25 mg/kg, po measured after 26 days relative to control. Also noted: scale not given: the % may be the effect or the level left. It is filed as functional.
The nature of series [14]: Oral bioavailability in dog. It is filed as ADME, organism-based, Canis lupus familiaris. Conditions: in vivo.
A short description of series [15]: Oral bioavailability in monkey. As to conditions: rhesus monkey, in vivo. The series is classed as ADME, organism-based, Macaca mulatta.
Series [16] deals with Mus musculus. Put plainly: Cardioprotective activity in C57BL/6 mouse assessed as reduction in lactate dehydrogenase release to coronary effluent at 30 mg/kg measured at 4 hrs post dose relative to control. It is filed as functional. Also noted: scale not given: the % may be the effect or the level left.
Series [17] has as its system Mus musculus. Put plainly: Cardioprotective activity in C57BL/6 mouse assessed as reduction in lactate dehydrogenase release to coronary effluent at 10 mg/kg measured at 4 hrs post dose relative to control. The series is classed as functional. On the set-up: scale not given: the % may be the effect or the level left.
For series [18], the system named is Mus musculus. In words: Cardioprotective activity in C57BL/6 mouse assessed as reduction in area of infract at 10 mg/kg measured at 4 hrs post dose relative to control. The series is classed as functional. On the set-up: scale not given: the % may be the effect or the level left.
For series [19], the system named is Mus musculus. In words: Cardioprotective activity in C57BL/6 mouse assessed as reduction in area of infract at 30 mg/kg measured at 4 hrs post dose relative to control. It is filed as functional. Also noted: scale not given: the % may be the effect or the level left.
Series [20] deals with Mus musculus. Put plainly: Cardioprotective activity in C57BL/6 mouse assessed as induction in VEGF mRNA levels at 60 mg/kg, po measured at 2 hrs post dose by qRT-PCR relative to control. It is filed as functional.
In series [21] the target is T2, Prolyl hydroxylase EGLN3 (Homo sapiens, UniProt Q9H6Z9). Put plainly: Inhibition of His tagged MBP-PHD3 (1 to 230 residues) (unknown origin) expressed in Escherichia coli using Cy5-labelled HIF2alpha as substrate preincubated for 3 mins followed by substrate addition nmeasured after 30 mins by LANCE assay.
T2 sequence (Q9H6Z9 whole entry, the tested form may be a part): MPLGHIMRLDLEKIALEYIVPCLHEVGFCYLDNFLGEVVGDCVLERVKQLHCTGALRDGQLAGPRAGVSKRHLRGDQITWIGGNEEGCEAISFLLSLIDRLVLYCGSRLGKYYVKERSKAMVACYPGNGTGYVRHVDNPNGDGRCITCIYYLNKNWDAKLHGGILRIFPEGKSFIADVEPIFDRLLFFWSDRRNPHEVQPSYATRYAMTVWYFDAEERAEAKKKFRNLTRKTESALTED
The species named for series [22] is Homo sapiens. In words: Selectivity ratio of IC50 for PHD3 (unknown origin) to IC50 for PHD2 (unknown origin).
For series [23], the species on record is Homo sapiens. In words: Inhibition of PHD (unknown origin) assessed as induction of EPO by cell based assay relative to control.
The target in series [24] is T1, Egl nine homolog 1. Put plainly: Inhibition of N-terminal truncated PHD2 (unknown origin) using biotin labelled DLDLEMLAPYIPMDDDFQL as substrate by AlphaScreen assay.
In series [25] the target is T1, Egl nine homolog 1. In words: Inhibition of human PHD2 expressed in 293FT cells using HIF-1 [alpha] as substrate after 20 mins by fluorescence polarization assay.
Series [26] addresses T1, Egl nine homolog 1. In words: Inhibition of FLAG- tagged full length HIF-PHD2 (unknown origin) expressed in baculovirus-infected Sf9 cells using biotin labelled DLDLEMLAPYIPMDDDFQL as substrate preincubated for 30 mins followed by substrate addition measured after 2 hrs by LANCE assay.
Series [27] is filed under the species Homo sapiens. In words: Inhibition of PHD in human Hep3B cells assessed as induction of EPO level by cell based assay relative to control.
A further series deals with Prolyl hydroxylase EGLN2 (Homo sapiens, UniProt Q96KS0). In words: Inhibition of PHD1 (unknown origin).
Sequence of Prolyl hydroxylase EGLN2 (Q96KS0 whole entry): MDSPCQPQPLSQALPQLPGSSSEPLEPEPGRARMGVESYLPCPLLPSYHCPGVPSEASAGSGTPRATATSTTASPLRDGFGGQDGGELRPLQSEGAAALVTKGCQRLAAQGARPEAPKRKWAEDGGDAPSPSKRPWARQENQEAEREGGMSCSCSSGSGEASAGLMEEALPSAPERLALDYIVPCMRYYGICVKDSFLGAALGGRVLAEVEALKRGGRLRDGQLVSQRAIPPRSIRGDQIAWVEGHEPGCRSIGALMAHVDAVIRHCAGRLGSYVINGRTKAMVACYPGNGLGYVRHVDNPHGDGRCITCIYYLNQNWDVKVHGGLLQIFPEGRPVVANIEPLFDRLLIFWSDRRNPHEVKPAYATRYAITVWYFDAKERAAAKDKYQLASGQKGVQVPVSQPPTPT
Series [28] concerns Mus musculus. Put plainly: In vivo inhibition of PHD in B6D2F1 mouse assessed as induction of EPO level at 60 mg/kg measured at 12 hrs post dose relative to control. It is filed as functional.
Series [29] relates to Homo sapiens. Put plainly: In vivo inhibition of PHD in human assessed as induction of EPO level in serum at 10 mg measured after 4 weeks. It is filed as functional.
Series [30] concerns the target T2, Prolyl hydroxylase EGLN3. Put plainly: Inhibition of PHD3 (unknown origin).

T1 sequence (Q9GZT9 whole entry): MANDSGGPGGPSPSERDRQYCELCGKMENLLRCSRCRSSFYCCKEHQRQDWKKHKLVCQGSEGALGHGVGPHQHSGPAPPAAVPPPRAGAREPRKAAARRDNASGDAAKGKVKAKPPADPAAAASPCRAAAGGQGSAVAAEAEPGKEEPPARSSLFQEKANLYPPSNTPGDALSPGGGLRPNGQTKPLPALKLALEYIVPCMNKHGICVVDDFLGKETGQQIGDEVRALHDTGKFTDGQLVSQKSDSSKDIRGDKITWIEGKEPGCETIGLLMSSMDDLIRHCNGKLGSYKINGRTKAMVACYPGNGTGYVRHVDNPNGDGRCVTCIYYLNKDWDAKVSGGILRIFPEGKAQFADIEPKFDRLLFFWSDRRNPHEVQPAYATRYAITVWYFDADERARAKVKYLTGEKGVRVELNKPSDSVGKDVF

As to `N#Cc1nc(C(=O)NCCC(=O)O)c(O)c2ccc(Oc3ccccc3)cc12`, in the series filed under Homo sapiens [1], the Ratio IC50 is 5.

As for `O=C(O)CNC(=O)c1ncc(-c2cccc(F)c2)cc1O`, the IC50 at Egl nine homolog 1 [2] was 13.7 µM.

In turn, `O=c1c(-c2cccnc2)c[nH]n1-c1ccccn1` returned an EC50 in [3] of 4.9 µM. In addition, in series [4], 430 nM corresponded to half-maximal inhibition (IC50).

Regarding `COCC1(CNC(=O)c2ccc(-n3ncc(-c4ccnc(OC)c4)c3O)nc2)CCCC1`, the pIC50 in series [5] was 8.4. The compound also had a pEC50 in [6] of 6.45.

As for `O=C(O)CNC(=O)c1ncc(-c2cccc(Cl)c2)cc1O`, the Activity with Homo sapiens [7] is on record as 32.4 mU/ml.

For the compound `Cc1nc(C(=O)NCC(=O)O)c(O)c2ccc(Oc3ccccc3)cc12` [ROXADUSTAT], the Activity with Homo sapiens [8] was 115 mU/ml; in the series listed under Homo sapiens [9], “>=1 g/dl”. Besides, the half-life in [10] is 720 min.

Take `O=c1c(-n2ccnn2)c[nH]n1-c1cc(N2CCOCC2)ncn1` [MOLIDUSTAT]: the figures for the bioavailability in [11], in series [14] and in series [15] were 34%, 71% and 61%, respectively. For the same compound, the Activity is 17% in the series with Rattus norvegicus [12] and 3% with Rattus norvegicus [13].

As to `CCN1CCN(C(=O)c2ccc(-n3ncc(-c4ccc(C#N)cc4C)c3O)nc2)CC1`, the negative-log IC50 (pIC50) in [5] turned out to be 8. For the same compound, the Activity in the series on Mus musculus [16] amounted to 56%; in the series on Mus musculus [17], 51%; in the series with Mus musculus [18] it was 50%; in the series with Mus musculus [19], 59%. In [6], this compound displayed a pEC50 of 6.25. In addition, the “fold change (FC)” value in the series on Mus musculus [20] is listed as 2.

As to `COc1ccc(-n2c(=S)[nH]c3cc(C(=O)NCc4ccc(Cl)cc4)sc3c2=O)nc1OC`, the IC50 against Prolyl hydroxylase EGLN3 [21] lay in the range of 1 to 100 nM.

`O=C(O)c1cnn(-c2nc(O)c3c(cnn3C(c3ccc(Cl)cc3)c3ccc(Cl)cc3)n2)c1`: in the series listed under Homo sapiens [22], the Ratio IC50 came to 130. Also, the fold change (FC) in the series filed under Homo sapiens [23] was found to be 40.

`CC(CC(=O)O)NC(=O)c1nc(C#N)c2cc(Oc3ccccc3)ccc2c1O` (stereo not given): the Ratio IC50 in the series filed under Homo sapiens [1] amounted to 40.

At Egl nine homolog 1 [24], `O=C(O)CCC(=O)NNC(=O)c1cc2ccccc2cn1` displayed an IC50 of 18.4 µM.

`O=C(NCc1ccc2c(c1)CCO2)c1ccc(-c2ncn[nH]2)nc1` gave an IC50 on Egl nine homolog 1 [25] of 61 nM.

For the compound `CC(C)(C)NC(=O)c1ccc(-n2[nH]cc(-c3cccnc3)c2=O)nc1`, in series [4], inhibition was half-maximal at 910 nM (IC50).

The compound `O=C(Cc1ccc(-c2ccccc2)cc1)Nc1cnc(-n2cccn2)nc1O` came in with an IC50 against Egl nine homolog 1 [26] of 0.7 nM.

Consider `CC(=O)Nc1c[nH]n(-c2ccc(C(=O)NCc3cccc(-c4ccccc4)c3)cc2)c1=O`, for which the fold change (FC) in the series listed under Homo sapiens [27] was found to be 40.

With `O=C(O)CCNC(=O)c1ncc(C(=O)NC(c2ccccc2)c2ccccc2)c(O)n1`, the IC50 against Egl nine homolog 1 [26] was less than 20 nM.

In turn, `COc1ccc(C(NC(=O)c2cnc(-c3cccnn3)nc2O)c2ccc([PH](=O)O)cc2)cc1` (stereo not given) returned an IC50 on Egl nine homolog 1 [26] of less than 10 nM.

For the compound `COc1ccc(-n2c(=O)[nH]c3cc(C(=O)NCc4ccc(Cl)cc4)sc3c2=O)nc1OC`, the concentration for half-maximal inhibition (IC50) against Prolyl hydroxylase EGLN3 [21] was 1 to 100 nM.

On to `COc1ccc(Oc2ccc3c(O)c(C(=O)NC(C)(C)CC(=O)O)nc(C#N)c3c2)cc1`, for which the Ratio IC50 in the series listed under Homo sapiens [1] is 40.

As to `O=C(O)CNC(=O)c1c(O)n(C2CCCCC2)c(=O)n(C2CCCCC2)c1=O`, the figures for the IC50 at Prolyl hydroxylase EGLN2 and against Prolyl hydroxylase EGLN3 [30] were 3.5 nM and 5.5 nM, respectively. In the series on Mus musculus [28], the “fold change (FC)” value is given as 11.2. Also, the Activity in the series with Homo sapiens [29] was determined as 500 mIU/ml.

Turning to `O=C(O)CNC(=O)c1ncc(C#CCOc2ccc(Cl)cc2)cc1O` [DDO-3055], the IC50 at Egl nine homolog 1 [2] is 13.7 µM.

(Values after ChEMBL document CHEMBL4145565, “Prolyl Hydroxylase Inhibitors: A Breakthrough in the Therapy of Anemia Associated with Chronic Diseases” (J Med Chem, 2018).)
